Measured values from ChEMBL document CHEMBL5724558, “Image-based profiling of drug vulnerabilities in CRC organoids” (2024).
Several values for one entry are separate records, joined by “and”; a condition that tells them apart may be missing. Identical values can stand only once.

Columns and labels:
Assay type in all cases: functional, Homo sapiens
Set-up in all cases: dose or concentration left out as unconfirmed
Colon cancer organoid [1] = experiment: (§1) Image-based profiling of donated chemical probes and chemogenomic kinase set in O09 CRC organoid. Image analysis is performed on the sum area metric, and the data were normalized to the DMSO control. After imaging the organoid viability is measured using the OneGloEX Luciferase Assay System. The normalized viability data and sum area are reported.
Colon cancer organoid [2] = experiment: as §1, with “O21” for “O09”
Colon cancer organoid [3] = experiment: as §1, with “O06” for “O09”

| SMILES | Cell Viability (Colon cancer organoid [1]; Replication number 1) | Cell Viability (Colon cancer organoid [1]; Replication number 2) | Cell Viability (Colon cancer organoid [2]; Replication number 1) | Cell Viability (Colon cancer organoid [2]; Replication number 2) | Cell Viability (Colon cancer organoid [3]; Replication number 1) | Cell Viability (Colon cancer organoid [3]; Replication number 2) |
| --- | --- | --- | --- | --- | --- | --- |
| c1ccc(C2CCN(c3cnc4c(N5CCOCC5)nccn34)CC2)cc1 | 180.042% and 107.897% | 162.986% and 102.452% | 115.301% and 98.0422% | 102.772% and 73.1066% | 145.966% and 120.992% | 117.4% and 104.103% |
| O=C(O)c1ccc(-c2c[nH]c3ncc(-c4ccccc4)cc23)cc1C1CCCC1 [GSK-650394] | 86.6407% and 76.4679% | 121.957% and 104.927% | 104.512% and 92.3751% | 123.401% and 109.943% | 96.4947% and 115.731% | 112.452% and 109.917% |
| Cc1ccc2nc(CNCCCOc3ccccc3)cc(O)c2c1 [UCSF924] | 89.1468% and 105.602% | 80.3683% and 95.5591% | 109.248% and 108.585% | 100.134% and 96.363% | 116.607% and 123.644% | 89.7333% and 84.3345% |
| O=C(Nc1cccnn1)N1CC(C/C=C/c2cncc(Oc3ccc(C(F)(F)F)cn3)n2)C1 | 144.17% and 108.229% | 154.84% and 92.5885% | 91.4572% and 89.6507% | 96.356% and 80.102% | 109.538% and 100.234% | 99.7432% and 110.394% |
| CCNC(=O)c1cc2c(-c3cc(C(C)(C)O)ccc3Oc3c(C)cc(F)cc3C)cn(C)c(=O)c2[nH]1 [ABBV-744] | 57.6147% and 40.8037% | 73.5027% and 48.4637% | 105.916% and 106.401% | 102.084% and 111.158% | 111.05% and 99.302% | 81.1787% and 70.2602% |
| O=C(CCCCCCNC(=O)c1cnc(N(c2ccccc2)c2ccccc2)nc1)NO [RICOLINOSTAT] | – | 236.119% and 135.984% | 136.698% and 150.49% | 122.116% and 112.232% | 107.943% and 108.966% | 120.178% and 118.056% |
| O=C1CCc2cc(Nc3cc(OC4CCOCC4)c([N+](=O)[O-])cc3Cl)ccc2N1 | 197.242% and 145.978% | 128.806% and 115.663% | 105.584% and 104.204% | 94.4034% and 103.061% | 92.8758% and 110.539% | 96.13% and 100.681% |
| Cc1nc(-c2cn3c(n2)-c2ccc(-c4cnn(C(C)(C)C(N)=O)c4)cc2OCC3)n(C(C)C)n1 [TASELISIB] | 40.2908% and 23.1884% | 43.7188% and 27.2651% | 74.483% and 67.4564% | 68.3353% and 63.3321% | 24.4584% and 46.9606% | 18.3941% and 28.1748% |
| COc1cccc(CNC(=O)c2nc3scc(CN(C)Cc4ccccc4)c3c(=O)[nH]2)c1 [T-26f] | 195.868% and 94.1333% | 147.324% and 100.767% | 98.5646% and 83.8292% | 88.8685% and 86.2245% | 86.0581% and 83.8408% | 86.5317% and 78.1759% |
| COCC(=O)NC/C=C/c1ccc2ncnc(Nc3ccc(Oc4ccc(C)nc4)c(C)c3)c2c1 [CP-724714] | 68.0715% and 78.0427% | 150.035% and 112.57% | 88.8144% and 89.7561% | 117.053% and 106.513% | 34.9461% and 62.9851% | 41.6567% and 67.0437% |
| CCCCNc1ncc(-c2ccc(CN3CCOCC3)cn2)c(N[C@H]2CC[C@H](O)CC2)n1 | 13.1667% and 26.0723% | 15.6613% and 21.4116% | 74.2042% and 87.3045% | 78.7125% and 74.949% | – | – |
| CN1CCN(Cc2ccc(Nc3ncc(Cl)c(Nc4ccccc4S(=O)(=O)N(C)C)n3)cc2)CC1 [DUBERMATINIB] | 4.849% and 7.106% | 5.761% and 10.5011% | – | – | 1.098% and 2.141% | 1% and 3.825% |
| COc1cc(Nc2ccnc3ccc(Br)cc23)cc(OC)c1OC | 33.1055% and 56.4229% | 29.2651% and 46.0292% | – | – | – | 5.197% and 15.2001% |
| Cc1cc(C)cc(C(=O)NOCCCCCC(=O)NO)c1 | – | – | 190.206% and 106.401% | 186.718% and 91.8258% | 14.9423% and 44.698% | 14.9026% and 40.6267% |
| CN(C)CC#Cc1ccc(OCCCc2sc(N3CCc4cccc(C(=O)Nc5nc6ccccc6s5)c4C3)nc2C(=O)O)c(F)c1 [A-1155463] | – | – | 47.3935% and 102.037% | 50.6709% and 99.4222% | 0.4141% and 9.206% | 0.1987% and 7.04% |
| CCc1cccc(CC)c1NC(=O)c1nn(C)c2c1CCc1cnc(Nc3ccc(C(=O)NC4CCN(C)CC4)cc3OC(F)(F)F)nc1-2 | 78.2687% and 77.2947% | 115.279% and 90.9735% | 41.8512% and 75.8188% | 49.725% and 74.2713% | – | – |
| COc1ccc(Oc2cc(NCCC(F)(F)F)c3ncc(-c4ccc(C(=O)NC5CC5)c(C)c4)n3n2)c(F)c1F [BAY-1217389] | 16.1792% and 31.9152% | 23.535% and 27.535% | 50.4052% and 66.3415% | 55.0801% and 82.9075% | – | – |

| SMILES | Cell Viability (Colon cancer organoid [1]; Replication number 1) | Cell Viability (Colon cancer organoid [1]; Replication number 2) | Cell Viability (Colon cancer organoid [2]; Replication number 1) | Cell Viability (Colon cancer organoid [2]; Replication number 2) | Cell Viability (Colon cancer organoid [3]; Replication number 1) | Cell Viability (Colon cancer organoid [3]; Replication number 2) |
| --- | --- | --- | --- | --- | --- | --- |
| CC[C@@H]1C(=O)N(C)c2cnc(Nc3ccc(C(=O)NC4CCN(C)CC4)cc3OC)nc2N1C1CCCC1 [BI-2536] | 16.4106% and 42.6367% | 20.1367% and 38.0631% | 25.994% and 61.8815% | 31.9179% and 66.7866% | – | – |
| N#CC1(c2ccccn2)CCN(Cc2cc(C(=O)O)c(=O)n3ccccc23)CC1 [MSD-M1PAM] | 40.5981% and 75.2157% | 57.8261% and 79.5004% | 89.7237% and 93.8523% | 106.363% and 84.1264% | – | – |
| CCn1cc(-c2ccnc3[nH]c(-c4cccc(CN(C)C)c4)cc23)c(-c2ccc(NC(=O)N(C)C)cc2)n1 [GSK-1070916] | 22.2316% and 23.9614% | 25.9157% and 31.5843% | 76.6328% and 71.3589% | 81.5265% and 81.1803% | – | – |
| C=CC(=O)N1CCC([C@@H]2CCNc3c(C(N)=O)c(-c4ccc(Oc5ccccc5)cc4)nn32)CC1 [ZANUBRUTINIB] | 34.0987% and 32.6632% | 34.2694% and 25.3214% | 87.382% and 84.1812% | 88.1261% and 101.331% | – | – |
| CCS(=O)(=O)Nc1ccc(Oc2ccc(F)cc2F)c(-c2cn(C)c(=O)c3[nH]ccc23)c1 [MIVEBRESIB] | 15.7549% and 20.0077% | 18.5163% and 23.3766% | 39.7622% and 88.1777% | 36.307% and 74.642% | – | – |
| Cn1cc(-c2[nH]c3cc(NC(=O)[C@H](N)C4CCCCC4)cc4c3c2C=NNC4=O)cn1 | 70.4366% and 51.3636% | 57.165% and 41.3025% | – | – | 9.563% and 27.3752% | – |
| CC(C)[C@H](C(=O)Nc1ccc(C(=O)NO)cc1)c1ccccc1 [AR-42] | – | – | 145.989% and 67.015% | 137.871% and 83.2339% | – | 8.903% and 23.7546% |
| CCN1CCN(c2ccc(Nc3cc(N(C)C(=O)Nc4c(Cl)c(OC)cc(OC)c4Cl)ncn3)cc2)CC1 [INFIGRATINIB] | 23.1721% and 22.7147% | 19.8415% and 27.805% | 70.5365% and 84.7387% | 76.3419% and 87.5135% | – | – |
| COc1cc(Nc2ncc3c(n2)-c2ccc(Cl)cc2C(c2c(F)cccc2OC)=NC3)ccc1C(=O)O [ALISERTIB] | 29.1632% and 19.7233% | 34.5212% and 21.703% | 99.741% and 113.91% | 76.2077% and 81.6074% | – | – |
| Cn1cc(CNCC2CCN(c3ncc(C(=O)NO)cn3)CC2)c2ccccc21 [QUISINOSTAT] | 11.6805% and 13.0062% | 13.8403% and 11.4602% | – | – | – | – |
| COc1cc2ncn(-c3cc(OCc4ccccc4C(F)(F)F)c(C(N)=O)s3)c2cc1OC [GW843682X] | 19.8463% and 25.1831% | 19.142% and 23.8097% | – | 21.0036% and 58.1504% | – | – |
| CCN(CCO)CCCOc1ccc2c(Nc3cc(CC(=O)Nc4cccc(F)c4)[nH]n3)ncnc2c1 [DEFOSBARASERTIB] | 28.5576% and 26.4792% | 25.188% and 21.7278% | 70.1574% and 72.5399% | 94.5203% and 86.7079% | – | – |
| C[C@@H](Oc1cc(-n2cnc3ccc(CN4CCN(C)CC4)cc32)sc1C(N)=O)c1ccccc1C(F)(F)F [GSK-461364] | 31.4361% and 40.8914% | 27.3036% and 34.2838% | 31.4353% and 81.9512% | – | – | – |
| CCCCN(CCCC)C(=O)CN1C[C@@H](c2cc(OC)c3c(c2)OCO3)[C@H](C(=O)O)[C@H]1CC(C)(C)CCC.Cl | 42.4098% and 26.0419% | 31.2719% and 16.5316% | 63.1584% and 74.5149% | 47.1745% and 81.1225% | – | – |
| COc1c(OCCCN2CCOCC2)ccc2c1N=C(NC(=O)c1cnc(N)nc1)N1CCN=C21 [COPANLISIB] | 12.735% and 9.949% | 17.4919% and 14.9013% | – | – | 2.47% and 7.411% | 1.939% and 5.676% |
| CC(=O)NCC(=O)N1[C@@H]2CC[C@H]1c1ccc(Nc3ncc(C(F)(F)F)c(NC4CCC4)n3)cc12 [PF-03814735] | – | 33.7645% and 14.7244% | 48.6382% and 56.6718% | 62.4502% and 65.7393% | – | – |
